Measurements as given in the NIST ThermoML archive (doi:10.1021/je5009334).
± gives the expanded uncertainty stated by the source.

Test: xn = mol fraction of the nth substance listed
Settings: 101 kPa, Liquid; for speed of sound: Sing-around technique in a fixed-path interferometer; for mass density: Vibrating tube method

CCC(O)CO (stereo not given) [1,2-butanediol] + CCC(C)O
Settings	mass density, 313.15 K [kg/m3]	mass density, 318.15 K [kg/m3]	mass density, 323.15 K [kg/m3]	speed of sound, 313.15 K [m/s]	speed of sound, 318.15 K [m/s]	speed of sound, 323.15 K [m/s]
x1 = 0.1	809.205 ± 0.24	804.796 ± 0.24	800.305 ± 0.24	1177.3 ± 1.2	1159.3 ± 1.2	1141.5 ± 1.2
x1 = 0.2	828.579 ± 0.24	824.244 ± 0.24	819.834 ± 0.24	1198.2 ± 1.2	1180.7 ± 1.2	1163.1 ± 1.2
x1 = 0.3	848.033 ± 0.24	843.762 ± 0.24	839.427 ± 0.24	1219.7 ± 1.2	1202.6 ± 1.2	1185.5 ± 1.2
x1 = 0.4	867.576 ± 0.25	863.365 ± 0.25	859.1 ± 0.25	1242.2 ± 1.2	1225.5 ± 1.2	1208.9 ± 1.2
x1 = 0.5	887.316 ± 0.25	883.169 ± 0.26	878.969 ± 0.26	1266.7 ± 1.2	1250.5 ± 1.2	1234.3 ± 1.2
x1 = 0.6	907.718 ± 0.25	903.63 ± 0.25	899.488 ± 0.25	1292.9 ± 1.2	1277 ± 1.2	1260.8 ± 1.2
x1 = 0.7	927.356 ± 0.24	923.329 ± 0.24	919.266 ± 0.24	1319 ± 1.2	1303.5 ± 1.2	1288.4 ± 1.2
x1 = 0.8	947.483 ± 0.23	943.516 ± 0.23	939.516 ± 0.24	1347.7 ± 1.2	1332.5 ± 1.2	1317.6 ± 1.2
x1 = 0.9	967.241 ± 0.23	963.332 ± 0.23	959.384 ± 0.23	1378.5 ± 1.2	1363.6 ± 1.2	1348.7 ± 1.2
x1 = 1	987.152 ± 0.23	983.297 ± 0.23	979.406 ± 0.23	1409.1 ± 1.3	1394.5 ± 1.2	1379.9 ± 1.2
